According to patent US5623080A, “Fluorone and pyronin Y derivatives” (Spectra Group Limited, Inc., priority 1995, dated 1997):

Assays:
pencil hardness = test: pencil hardness
Description: (§1) To a resin formulation consisting of 15 parts urethane diacrylate, 15 parts DPHPA, 20 parts TPGDA and 40 parts TMPTA was added DIDMA, initiator and (4-octyloxyphenyl)phenyliodonium hexafluoroantimonate (OPPI). The samples were coated to a thickness of 15 microns and exposed to a 75 W tungsten halogen dental lamp (focused through an optical fiber) at a distance of 0.75 inch at which the Light intensity was about 0.40 W/cm^2. The molar ratios are indicative of the amounts of fluorone to onium salt to amine coinitiator. The double bond conversion was determined by FTIR spectroscopy. The pencil hardness of a given test sample is measured by holding a pencil at a 45° angle to the sample and drawing across it towards the person testing it. Using the pencils in an order from softest to hardest, the first pencil that scratches the surface is assigned as the pencil hardness of the sample. The pencil hardness scale is as follows from softest to hardest: 4B, 3B, 2B, B, HB, H, 2H, 3H, 4H, 6H. For instance, if a 2H pencil is the first pencil to scratch the surface then the pencil hardness is 2H.
At the extreme ends of the scale, it is impossible to determine the actual pencil hardness. […] Likewise, if the 4B pencil scratches the sample, the only assignment that can be made is <4B, unless it is a lot softer than 4B in which case a <<4B can be assigned. A pencil hardness of 4H is generally considered satisfactory. Pencil hardness data was greater than 6H after 30 seocnd exposure for all samples except for the control samples without amine (1:2:0). The controls were all less than 4B an 0.05 wt %, 0.10 wt %, and 0.15 wt %.
Photosensitive compositions were prepared from the resin formulation of Example 35 containing 1% NPG and 0.05% DIBF or 0.05% DIEF. The samples were exposed under the conditions shown in the following table and pencil hardness was measured.
Diphenyliodonium hexafluoroantimonate was added to DIBF samples.
Samples were also prepared using 1% DIDMA in addition to the fluorone for a 20:1 weight ratio.
Samples were also prepared from the same resin formulation containing 0.1% DIBF in addition to the coinitiator listed in the following Table 9 with the exposure condition and pencil hardness results shown.
Using the resin formulation of Example 36, photosensitive compositions were prepared using TIHF, DIDMA and OPPI at a concentration of 0.21% and in the molar ratios shown in Table 10 which follows. Exposure was conducted with the dental lamp at a distance of 1 inch from the sample to provide an intensity of about 0.26 W/cm^2. Molar ratios are fluorone:onium salt:amine.

[1] = double bond conversion (C=C% Conversion) by FTIR; conditions: 0.05 wt %; (1:2:3); NPG; 60 sec
depth of cure = test: depth of cure
From the text: One of the advantages of the fluorone dye photoinitiators in this invention is the depth of the cure that is obtainable. This is in contrast to UV photoinitators that causes a "screening" effect which prevents the UV light from penetrating beyond a certain […] depth, usually several millimeters. By contrast, the fluorone dye bleaches as it photoinitiates and is concommitantly converted into a non-visible absorbing species thus allowing more visible light to penetrate which continues the cure. This cascading bleaching effect permits substantial depth of cure which can easily reach several inches.
An acrylate monomer mixture was composed of 15 parts urethane diacrylate, 20 parts TPGPA, 40 parts TMPTA and 15 parts DPHPA, and a 20 to 1 weight ratio of NPG coinitiator to DIEF or DIBF fluorone dye. For dye concentrations of 0.01, 0.05 and 0.1 weight, all the formulations cured to a depth of 3 cm in 30 seconds when exposed to a 350 watt tungsten halogen light which provides about 500 mw/cm^2 irradiance. When the irradiance was increased to about 2 watts/cm^2 cure speed was shortened to 5 seconds for the same depth.
An acrylate mixture was composed of 60% urethane diacrylate, 30% DPHPA, 10% BDDA, and 0.05 weight % of DIEF or DIBF fluorone dye with 2 weight % of DIDMA. The formulation cure to a depth greater than 1 cm in 10 seconds when exposed to a 75 watt tungsten halogen lamp which provided an irradiance of about 260 mw/cm^2.
An acrylate mixture was composed of 33% TMPTA, 33% DPHPA, 33% Epoxy acrylate, and 2% of DIDMA with either 0.01, 0.05 or 0.1 weight % of DIEF. All samples cured to a depth greater than 1 cm in 10 seconds when exposed to a 75 watt tungsten halogen.
An acrylate mixture was composed of 70% urethane diacrylate, 5% DPHPA, 25% BDDA, and 2% DIDMA with either 0.01, 0.03 or 0.1 weight % DIEF. The 0.01 and 0.03 samples cured after 2 passes through a 300 watt per inch medium pressure mercury arc lamp at a speed of 50 feet/minute to a depth greater than 3 mm. The 0.1 sample cured to a depth of greater than 1.5 mm.

[2] = absorption wavelength (λmax) and extinction (ε); assay type: physicochemical; conditions: EtOH, Table 1
[3] = double bond conversion (C=C% Conversion) by FTIR; conditions: DIDMA
Description: as §1
The foregoing study was repeated using 100% butanediol diacrylate, and 100% polyethylene glycol diacrylate (MW=400)(PEGA 400).

**Q.** With CCCCOc1ccc2cc3cc(I)c(=O)c(I)c-3oc2c1 [DIBF, 5,7-diiodo-3-butoxy-6-fluorone] as the compound, how does the Pencil hardness (pencil hardness; 0.05 wt. % w/ 0.05 wt. % DPISbF6, Dental Lamp, Air, 60 sec) read?
**A.** The Pencil hardness was 2H.

**Q.** And the Pencil hardness (pencil hardness; 0.05 wt. % w/ 0.05 wt. % DPISbF6, Dental Lamp, No Air, 10 sec)?
**A.** Its Pencil hardness is > 6H.

**Q.** And the Pencil hardness (pencil hardness; 0.05 wt. % w/ 0.05 wt. % DPISbF6, Fusion (Q bulb), Air, 10 ft/min)?
**A.** Its Pencil hardness is > 6H.

**Q.** What about the Pencil hardness (pencil hardness; 0.05 wt. % w/ 0.05 wt. % DPISbF6, Fusion (Q bulb), Air, 20 ft/min) of the same compound?
**A.** Its Pencil hardness is > 6H.

**Q.** What about the Pencil hardness (pencil hardness; 0.05 wt. %, 1% DIDMA, Dental Lamp, No Air, 10 sec) of the same compound?
**A.** The Pencil hardness was 5-6H.

**Q.** And the Pencil hardness (pencil hardness; 0.05 wt. %, 1% DIDMA, Dental Lamp, No Air, 30 sec)?
**A.** Its Pencil hardness is > 6H.

**Q.** What about the Pencil hardness (pencil hardness; 0.05 wt. %, 1% DIDMA, Dental Lamp, No Air, 60 sec) of the same compound?
**A.** The Pencil hardness was > 6H.

**Q.** And the Pencil hardness (pencil hardness; 0.05 wt. %, 1% DIDMA, Fusion (Q bulb), Air, 10 ft/min)?
**A.** Its Pencil hardness is > 6H.

**Q.** What about the Pencil hardness (pencil hardness; 0.05 wt. %, 1% DIDMA, Fusion (Q bulb), Air, 20 ft/min) of the same compound?
**A.** The Pencil hardness was 3H.

**Q.** What about the Pencil hardness (pencil hardness; 0.05 wt. %, 1% NPG, Dental Lamp, No Air, 10 sec) of the same compound?
**A.** Its Pencil hardness is 4H.

**Q.** What about the Pencil hardness (pencil hardness; 0.05 wt. %, 1% NPG, Dental Lamp, No Air, 30 sec) of the same compound?
**A.** Its Pencil hardness is > 6H.

**Q.** And the Pencil hardness (pencil hardness; 0.05 wt. %, 1% NPG, Dental Lamp, No Air, 60 sec)?
**A.** The Pencil hardness was > 6H.

**Q.** What about the Pencil hardness (pencil hardness; 0.05 wt. %, 1% NPG, Fusion (Q bulb), Air, 10 ft/min) of the same compound?
**A.** Its Pencil hardness is > 6H.

**Q.** What about the Pencil hardness (pencil hardness; 0.05 wt. %, 1% NPG, Fusion (Q bulb), Air, 20 ft/min) of the same compound?
**A.** Its Pencil hardness is 4H.

**Q.** And the Pencil hardness (pencil hardness; 0.05 wt. %, 1% NPG, Overhead Proj., No Air, 60 sec)?
**A.** Its Pencil hardness is 5-6H.

**Q.** And the Pencil hardness (pencil hardness; 0.1% DIBF, 1.5% DIDMA, Dental Lamp, No Air, 10 sec)?
**A.** The Pencil hardness was > 6H.

**Q.** What about the Pencil hardness (pencil hardness; 0.1% DIBF, 1.5% DIDMA, Dental Lamp, No Air, 30 sec) of the same compound?
**A.** Its Pencil hardness is > 6H.

**Q.** And the Pencil hardness (pencil hardness; 0.1% DIBF, 1.5% DIDMA, Dental Lamp, No Air, 60 sec)?
**A.** The Pencil hardness was > 6 h.

**Q.** What about the Pencil hardness (pencil hardness; 0.1% DIBF, 1.5% DIDMA, Fusion (Q bulb), Air, 10 ft/min) of the same compound?
**A.** The Pencil hardness was > 6H.

**Q.** And the Pencil hardness (pencil hardness; 0.1% DIBF, 1.5% DIDMA, Fusion (Q bulb), Air, 20 ft/min)?
**A.** The Pencil hardness was 5-6H.

**Q.** And the Pencil hardness (pencil hardness; 0.1% DIBF, 1.5% NPG, Dental Lamp, No Air, 10 sec)?
**A.** Its Pencil hardness is 5-6H.

**Q.** And the Pencil hardness (pencil hardness; 0.1% DIBF, 1.5% NPG, Dental Lamp, No Air, 30 sec)?
**A.** Its Pencil hardness is > 6H.

**Q.** And the Pencil hardness (pencil hardness; 0.1% DIBF, 1.5% NPG, Dental Lamp, No Air, 60 sec)?
**A.** Its Pencil hardness is > 6 h.

**Q.** What about the Pencil hardness (pencil hardness; 0.1% DIBF, 1.5% NPG, Fusion (Q bulb), Air, 10 ft/min) of the same compound?
**A.** Its Pencil hardness is > 6H.

**Q.** What about the Pencil hardness (pencil hardness; 0.1% DIBF, 1.5% NPG, Fusion (Q bulb), Air, 20 ft/min) of the same compound?
**A.** The Pencil hardness was 5-6H.

**Q.** What about the Pencil hardness (pencil hardness; 0.1% DIBF, 2% NPG, Dental Lamp, No Air, 10 sec) of the same compound?
**A.** The Pencil hardness was 5-6H.

**Q.** And the Pencil hardness (pencil hardness; 0.1% DIBF, 2% NPG, Dental Lamp, No Air, 30 sec)?
**A.** Its Pencil hardness is > 6H.

**Q.** And the Pencil hardness (pencil hardness; 0.1% DIBF, 2% NPG, Dental Lamp, No Air, 60 sec)?
**A.** The Pencil hardness was > 6H.

**Q.** What about the Pencil hardness (pencil hardness; 0.1% DIBF, 2% NPG, Fusion (Q bulb), Air, 10 ft/min) of the same compound?
**A.** The Pencil hardness was > 6H.

**Q.** And the Pencil hardness (pencil hardness; 0.1% DIBF, 2% NPG, Fusion (Q bulb), Air, 20 ft/min)?
**A.** The Pencil hardness was 5-6H.

**Q.** And the “Pencil hardness” value (pencil hardness; Table 11, 0.05%, (1:0:60), DIDMA, 10 sec.)?
**A.** The value was 4H.

**Q.** And the “Pencil hardness” value (pencil hardness; Table 11, 0.05%, (1:0:60), DIDMA, 60 sec.)?
**A.** Its value is > 6H.

**Q.** What about the “Pencil hardness” value (pencil hardness; Table 11, 0.05%, (1:1:60), DIDMA, 10 sec.) of the same compound?
**A.** The value was > 6H.

**Q.** What about the “Pencil hardness” value (pencil hardness; Table 11, 0.05%, (1:2:3), DIDMA, 60 sec.) of the same compound?
**A.** Its value is > 6H.

**Q.** And the “Pencil hardness” value (pencil hardness; Table 11, 0.05%, (1:2:3), NPG, 60 sec.)?
**A.** The value was > 6H.

**Q.** And the “Pencil hardness” value (pencil hardness; Table 11, 0.10%, (1:2:3), DIDMA, 60 sec.)?
**A.** The value was > 6H.

**Q.** What about the “Pencil hardness” value (pencil hardness; Table 11, 0.15%, (1:2:3), DIDMA, 60 sec.) of the same compound?
**A.** Its value is > 6H.

**Q.** And the “C=C% Conversion” value [1]?
**A.** The value was 43%.

**Q.** What about the depth of cure (depth of cure; 10 seconds, 75 watt tungsten halogen, about 260 mw/cm^2, 0.05 weight % dye, 2 weight % DIDMA, 60% urethane diacrylate, 30% DPHPA, 10% BDDA) of the same compound?
**A.** The depth of cure was “greater than 1 cm”.

**Q.** And the depth of cure (depth of cure; 30 seconds, 350 watt tungsten halogen, about 500 mw/cm^2, dye 0.01, 0.05 and 0.1 weight, NPG 20 to 1)?
**A.** Its depth of cure is 3 cm.

**Q.** What about the “cure time for the same depth (3 cm)” value (depth of cure; about 2 watts/cm^2, NPG 20 to 1) of the same compound?
**A.** Its value is 5 s.

**Q.** What about the “λmax in EtOH (first value)” value [2] of the same compound?
**A.** Its value is 470.

**Q.** And the “ε (first value)” value ([2]; at first λmax, in M-1cm-1 (unit assumed))?
**A.** Its value is 30,200.

**Q.** What about the “C=C% Conversion” value ([3]; 0.05 wt %, (1:0:60), 60 sec) of the same compound?
**A.** The value was 50%.

**Q.** And the “C=C% Conversion” value ([3]; 0.05 wt %, (1:2:3), 60 sec)?
**A.** Its value is 61%.

**Q.** And the “C=C% Conversion” value ([3]; 0.10 wt %, (1:2:3), 60 sec)?
**A.** The value was 90%.

**Q.** What about the “C=C% Conversion” value ([3]; 0.15 wt %, (1:2:3), 10 sec) of the same compound?
**A.** The value was 60%.

**Q.** What about the “C=C% Conversion” value ([3]; 0.15 wt %, (1:2:3), 30 sec) of the same compound?
**A.** The value was 84%.

**Q.** And the “C=C% Conversion” value ([3]; 0.15 wt %, (1:2:3), 60 sec)?
**A.** Its value is 90%.
